Data as given in ChEMBL document CHEMBL1201862, “PubChem BioAssay data set” (2004).
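In this assay, cells in 96-well plates receive the compound at five concentrations for 48 hours. Endpoints are linearly interpolated between the surrounding concentrations. GI50 = concentration required for 50% inhibition of growth.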 The source made the active and inactive calls. Cut-off read from the data, not from the text of the source: active = GI50 up to about 1.1 µM and inactive = higher.

Columns and labels:
Assay in all cases: NCI anticancer screen, dose series, 48 h
HCT-116 = system: HCT-116
DU-145 = system: DU-145
NCI-H23 = system: NCI-H23
SK-MEL-28 = system: SK-MEL-28
OVCAR-5 = system: OVCAR-5
PC-3 = system: PC-3
SK-MEL-5 = system: SK-MEL-5
M14 = system: M14
NCI-H522 = system: NCI-H522
TK-10 = system: TK-10
CCRF-CEM = system: CCRF-CEM
HT-29 = system: HT-29
IGROV-1 = system: IGROV-1
OVCAR-8 = system: OVCAR-8
NCI-H226 = system: NCI-H226
HCC 2998 = system: HCC 2998
SW-620 = system: SW-620
NCI-H460 = system: NCI-H460
HL-60 = system: HL-60

Measured: GI50

CC(C)(CC#N)c1cc(CC(C)(C)c2cc(CC(C)(C)c3cc(C(C)(C)C4(C)OCCO4)no3)no2)no1
inactive: HCT-116 51.4 µM | DU-145 50.4 µM | NCI-H23 > 100 µM | SK-MEL-28 > 100 µM | OVCAR-5 > 100 µM | PC-3 39.7 µM | SK-MEL-5 75.7 µM | M14 > 100 µM | NCI-H522 24.6 µM | TK-10 51.5 µM | CCRF-CEM 45.8 µM | HT-29 > 100 µM | IGROV-1 54.1 µM | OVCAR-8 51.9 µM | NCI-H226 36.4 µM | HCC 2998 > 100 µM | SW-620 > 100 µM

CC(C)(CO)CNc1nc(N)nc(Cl)c1N
inactive: HCT-116 > 100 µM | DU-145 > 100 µM | NCI-H23 > 100 µM | SK-MEL-28 > 100 µM | OVCAR-5 > 100 µM | PC-3 > 100 µM | SK-MEL-5 95.1 µM | NCI-H522 > 100 µM | NCI-H460 > 100 µM | TK-10 > 100 µM | CCRF-CEM > 100 µM | HT-29 > 100 µM | IGROV-1 > 100 µM | OVCAR-8 > 100 µM | NCI-H226 67.3 µM | HCC 2998 > 100 µM | SW-620 > 100 µM

O=S(=O)(O)c1cc(Cl)c(O)c2ncc(Cl)cc12
inactive: HCT-116 36.5 µM | DU-145 > 100 µM | NCI-H23 72.4 µM | SK-MEL-28 > 100 µM | OVCAR-5 > 100 µM | PC-3 > 100 µM | SK-MEL-5 84.3 µM | M14 90.8 µM | NCI-H460 55.5 µM | CCRF-CEM 24.6 µM | HT-29 38.5 µM | IGROV-1 35.4 µM | OVCAR-8 37.5 µM | NCI-H226 73.1 µM | HCC 2998 > 100 µM | SW-620 56.8 µM

Cc1ccc(S(=O)(=O)N/N=C2\C=CC3(CC2)C(=O)N(I)c2ccccc23)cc1 (centres undefined)
inactive: HCT-116 87.5 µM | DU-145 > 10 µM | NCI-H23 > 100 µM | SK-MEL-28 > 100 µM | OVCAR-5 > 100 µM | PC-3 63.1 µM | SK-MEL-5 > 100 µM | M14 > 100 µM | NCI-H460 94.4 µM | TK-10 > 100 µM | CCRF-CEM 75 µM | HT-29 > 100 µM | OVCAR-8 > 100 µM | NCI-H226 > 100 µM | HCC 2998 > 100 µM | SW-620 > 100 µM

CCOC(=O)C1C(O)CC2c3ccccc3-c3ccccc3C21 (centres undefined)
inactive: HCT-116 19.8 µM | DU-145 > 100 µM | NCI-H23 42.5 µM | SK-MEL-28 > 100 µM | OVCAR-5 > 100 µM | PC-3 > 100 µM | SK-MEL-5 50.5 µM | M14 > 100 µM | NCI-H522 35.4 µM | NCI-H460 > 100 µM | TK-10 55.2 µM | CCRF-CEM 8.85 µM | HT-29 68.1 µM | IGROV-1 47.1 µM | OVCAR-8 21.5 µM | NCI-H226 3.2 µM | HL-60 > 100 µM | SW-620 48.4 µM
